{"source": "patent US8187320B2", "about": "“Medical implants containing FK506 (tacrolimus)” (Abbott Laboratories Vascular Enterprises Limited, priority 2001, dated 2012)", "key": {"[1]": {"tested_on": "neointima formation and foci of inflammation", "test": "Animal study: FK506-loaded ceramic-coated stents implanted into the carotid artery of rabbits", "format": "in vivo, New Zealand rabbits", "conditions": "ceramic-coated stents loaded with 60 μg of FK506; rabbit carotid artery; after 28 days", "description": "Stainless steel coronary stents (JOSTENT Flex, 16 mm) were coated with an aluminum oxide ceramic layer. This coating served as carrier of FK506 (as described in Example 5). In this case, the stents were loaded with a total of 60 μg of FK506. In an animal study in rabbits (n=7), these FK506 coated stents and normal stents without coating were implanted into the carotid artery of New Zealand rabbits. The release of FK506 and the effect of FK506 on the growth of the intima and the formation of macrophages and lymphocytes was investigated.\nThe release of FK506 were determined by HPLC determination of the amount of FK506 in the blood of the rabbits after 1 hr, 8 hr, 24 hr and 48 hr. FIG. 6 is a graph showing the release of FK506 over time. The rabbits were sacrificed after 28 days, and the implanted stents were examined. The area of newly grown intima (neointima) within the stent was quantified under the optical microscope, and is reported in FIG. 7. There is a reduction of 53% in the formation of neointima for stents loaded with 60 μg of FK506 compared with bare stents. […] The use of stents with a ceramic coating onto which FK506 is applied thus leads to a distinct reduction in neointima and in foci of inflammation after the implantation."}, "[2]": {"tested_on": "smooth muscle cells (SMC)", "test": "Inhibition of proliferation of smooth muscle cell (SMC) cultures", "format": "cell-based"}, "[3]": {"test": "Active agent release from stent grafts and polymer-coated stents in PBS buffer at 37° C.", "format": "physicochemical", "conditions": "type A PTFE stent graft, PBS 37° C.", "description": "To analyze the active agent release, a stent was incubated at 37° C. in 10 ml of PBS buffer (stabilized with Na azide) at 37° C. After defined periods of time had elapsed, 2×1 ml of the solution were removed and analyzed. These 2 ml were replaced by fresh PBS buffer (stabilized with Na azide).\nThe tables reflect the total released content of active agent in the solution., ie., the amounts of active agent in the buffer volume removed for the analysis are accumulated with amounts detected in subsequent examples."}, "[4]": {"test": "Loading of selected active agents onto stent grafts / polyurethane-coated stents", "format": "physicochemical", "conditions": "type A: stent grafts with PTFE polymer layer immersed in solution of dissolved solids", "description": "Loading of Selected Active Agents onto Stent Grafts All values are stated in μg."}, "[5]": {"tested_on": "neointima formation", "conditions": "animal experiments; cited from earlier work"}, "[6]": {"tested_on": "neointima formation", "conditions": "pigs; Heldman 2001; cited from earlier work"}, "[7]": {"tested_on": "restenosis", "conditions": "in vivo; cited from earlier work"}}, "note": "Where “and” joins values, the source holds several entries; their conditions need not be identical. Equal entries are not always repeated. Marks after values point to notes of the source that are not given here."}
{"smiles": "C=CC[C@@H]1/C=C(\\C)C[C@H](C)C[C@H](OC)[C@H]2O[C@@](O)(C(=O)C(=O)N3CCCC[C@H]3C(=O)O[C@H](/C(C)=C/[C@@H]3CC[C@@H](O)[C@H](OC)C3)[C@H](C)[C@@H](O)CC1=O)[C@H](C)C[C@@H]2OC", "note": "(relative stereo) [FK 506, [3S-[3R* [E(1S*, 3S*, 4S*)], 4S*, 5R*,-8S*, 9E, 12R*, 14R*, 15S*, 16R*, 18S*, 19S*, 26aR*]]-5,6,8,11,12, 13, 14, 15, 16, 17, 18, 19, 24, 25, 25, 26, 26a-hexadecahydro-5,19-dihydroxy-3-[2-(4-hydroxy-3-methoxycyclohexyl)-1-methylethenyl]-14,16-dimethoxy-4,10,12,18-tetramethyl-8-(2-propenyl)-15,19-epoxy-3H-pyrido[2,1-c] [1,4]oxaazacyclotricosine-1,7-20,21(4H,23H)-tetrone]", "values": [{"measurement": "reduction in the formation of neointima compared with bare stents", "setting": "[1]", "result": 53, "unit": "%"}, {"measurement": "concentrations with inhibitory effect on SMC proliferation", "setting": "[2]", "result": "300 to 500", "unit": "nM"}]}
{"smiles": "N.N.[Cl][Pt][Cl]", "note": "[Cisplatin]", "values": [{"measurement": "total released content after 24 hr, single determinations", "setting": "[3]; Cisplatin", "result": "12.4 µg and 12.2 µg and 16.1 µg and 15.9 µg and 10.9 µg and 11.1 µg"}, {"measurement": "amount of active agent loaded, Average", "setting": "[4]", "result": 14, "unit": "µg"}, {"measurement": "amount of active agent loaded, single stent, measured by AAS", "setting": "[4]; measured by AAS", "result": "15* μg and 14* μg"}]}
{"smiles": "O=C1c2c(O)ccc(O)c2C(=O)c2c(NCCNCCO)ccc(NCCNCCO)c21", "note": "[Mitoxantrone]", "values": [{"measurement": "amount of active agent loaded, Average", "setting": "[4]", "result": 124, "unit": "µg"}, {"measurement": "amount of active agent loaded, single stent", "setting": "[4]", "result": "116 µg and 142 µg and 113 µg"}]}
{"smiles": "CC(=O)O[C@H]1C(=O)[C@@]2(C)[C@H]([C@H](OC(=O)c3ccccc3)[C@]3(O)C[C@H](OC(=O)[C@H](O)[C@@H](NC(=O)c4ccccc4)c4ccccc4)C(C)=C1C3(C)C)[C@]1(OC(C)=O)CO[C@@H]1C[C@@H]2O", "note": "[Paclitaxel]", "values": [{"measurement": "neointima formation", "setting": "[5]", "result": "inhibit neointima formation"}, {"measurement": "total released content after 8 hr, single determinations", "setting": "[3]; Paclitaxel, after 8 hr", "result": "1.16 and μg and 1.21 μg and 0.89 and 0.94 μg and 1.42 and 1.25 μg"}, {"measurement": "total released content after 24 hr, single determinations", "setting": "[3]; Paclitaxel", "result": "2.44 and μg and 2.40 μg and 2.26 and 2.27 μg and 1.65 and 1.42 μg"}, {"measurement": "total released content after 96 hr, single determinations", "setting": "[3]; Paclitaxel, after 96 hr", "result": "2.79 and μg and 2.78 μg and 2.82 and 2.82 μg and 1.42 and 1.93 μg"}, {"measurement": "total released content after 192 hr, Average", "setting": "[3]; Paclitaxel, after 192 hr", "result": 2.23, "unit": "µg"}, {"measurement": "total released content after 192 hr, single determinations", "setting": "[3]; Paclitaxel, after 192 hr", "result": "2.22 µg and 2.24 µg"}, {"measurement": "amount of active agent loaded, Average", "setting": "[4]", "result": 144, "unit": "µg"}, {"measurement": "amount of active agent loaded, single stent", "setting": "[4]", "result": "128 µg and 155 µg and 148 µg"}, {"measurement": "duration of beneficial effect of coated stents", "setting": "[6]", "result": "beneficial effect has been observed to cease after 6 months"}]}
{"smiles": "CC[C@]1(O)C[C@@H]2CN(CCc3c([nH]c4ccccc34)[C@@](C(=O)OC)(c3cc4c(cc3OC)N(C)[C@H]3[C@@](O)(C(=O)OC)[C@H](OC(C)=O)[C@]5(CC)C=CCN6CC[C@]43[C@@H]65)C2)C1", "note": "[Vinblastine]", "values": [{"measurement": "total released content after 96 hr, Average", "setting": "[3]; Vinblastine, after 96 hr", "result": 136, "unit": "µg"}, {"measurement": "total released content after 96 hr, single determinations", "setting": "[3]; Vinblastine, after 96 hr", "result": "132 and μg and 140 μg"}]}
{"smiles": "CO[C@H]1C[C@@H]2CC[C@@H](C)[C@@](O)(O2)C(=O)C(=O)N2CCCC[C@H]2C(=O)O[C@H]([C@H](C)C[C@@H]2CC[C@@H](O)[C@H](OC)C2)CC(=O)[C@H](C)/C=C(\\C)[C@@H](O)[C@@H](OC)C(=O)[C@H](C)C[C@H](C)/C=C/C=C/C=C/1C", "note": "[rapamycin]", "values": [{"measurement": "healing of vessel wall injury caused by balloon angioplasty and stent implantation", "setting": "[7]", "result": "delays healing of vessel wall injury"}]}
